{"source": "the RepoRT retention time repository (doi:10.1016/j.aca.2012.07.013)", "data": [{"test": "RP, 50 × 2.1 mm, 1.7 µm, 0.5 mL/min, estimated dead time 0.22 min; A: 98% water + 2% acetonitrile + 0.1% formic acid, pH 3; B: 2% water + 98% acetonitrile + 0.1% formic acid, pH 3; gradient (min/%B) 0/0 0.5/0 4/60 8/100 9/100 9.2/0 10/0", "conditions": "stereoisomer not certain", "units": {"LC retention time": "min"}, "values": [{"molecule": "Nc1ccc(C(F)(F)F)cc1", "note": "[4-trifluoro methylaniline]", "LC retention time": 0.383}, {"molecule": "CCCCCCCCCCCCCCC(=O)OCC(O)COP(=O)([O-])OCC[N+](C)(C)C", "note": "(configuration not stated) [LPC (15:0)]", "LC retention time": 4.67}, {"molecule": "CCCCCCCCCCCCCCCC(=O)OCC(O)COP(=O)([O-])OCC[N+](C)(C)C", "note": "(configuration not stated) [LPC (16:0)]", "LC retention time": 4.98}, {"molecule": "CCCCCCCCCCCCCCCCC(=O)OCC(O)COP(=O)([O-])OCC[N+](C)(C)C", "note": "(configuration not stated) [LPC (17:0)]", "LC retention time": 5.3}, {"molecule": "CCCCCCCCCCCCCCCCCC(=O)OCC(O)COP(=O)([O-])OCC[N+](C)(C)C", "note": "(configuration not stated) [LPC (18:0)]", "LC retention time": 5.64}, {"molecule": "CCC=CCC=CCC=CCC=CCC=CCC=CCCC(=O)OCC(O)COP(=O)([O-])OCC[N+](C)(C)C", "note": "(configuration not stated) [LPC (22:6)]", "LC retention time": 4.72}, {"molecule": "CCCCCC=CCC=CCC=CCC=CCCCC(=O)OC(CO)COP(=O)(O)OCCN", "note": "(configuration not stated) [LPE (0:0/20:4(5Z,8Z,11Z,14Z)]", "LC retention time": 4.74}, {"molecule": "CCC=CCC=CCC=CCC=CCCCCCCC(=O)OC(CO)COP(=O)(O)OCCN", "note": "(configuration not stated) [LPE (0:0/20:4(8Z,11Z,14Z,17Z))]", "LC retention time": 4.74}, {"molecule": "CCC=CCC=CCC=CCC=CCC=CCC=CCCC(=O)OC(CO)COP(=O)(O)OCCN", "note": "(configuration not stated) [LPE (0:0/22:6(4Z,7Z,10Z,13Z,16Z,19Z))]", "LC retention time": 4.71}, {"molecule": "CCCCCC=CCC=CCC=CCCCCCCC(=O)OCC(O)COP(=O)(O)OCCN", "note": "(configuration not stated) [LPE (20:3)]", "LC retention time": 4.71}, {"molecule": "CCC=CCC=CCC=CCC=CCCCCCCC(=O)OCC(O)COP(=O)(O)OCCN", "note": "(configuration not stated) [LPE (20:4(8Z,11Z,14Z,17Z)/0:0)]", "LC retention time": 4.74}, {"molecule": "CCCCCCCCCCCCCCCCCCOCC(O)COP(=O)(O)OCC(N)C(=O)O", "note": "(configuration not stated) [PS (O-18:0/0:0)]", "LC retention time": 4.52}, {"molecule": "Oc1ccc(C(c2ccc(O)cc2)(C(F)(F)F)C(F)(F)F)cc1", "note": "[bisphenol AF]", "LC retention time": 0.397}, {"molecule": "O=c1cc2oc3ccccc3oc-2cc1=O", "note": "[dibenzo[1,4]dioxin-2,3-dione]", "LC retention time": 2.57}, {"molecule": "c1ccc(CSSCc2ccccc2)cc1", "note": "[dibenzyl disulfide]", "LC retention time": 2.39}, {"molecule": "CC(CCC(=O)NCC(=O)O)C1CCC2C3C(O)CC4CC(OS(=O)(=O)O)CCC4(C)C3CCC12C", "note": "(configuration not stated) [glycochenodeoxycholate-3-sulfate]", "LC retention time": 3.38}, {"molecule": "CC(CCC(=O)NCC(=O)O)C1CCC2C3C(O)CC4CC(O)CCC4(C)C3CCC12C", "note": "(configuration not stated) [glycochenodeoxycholic acid (GCDCA)]", "LC retention time": 3.78}, {"molecule": "CC(CCC(=O)NCC(=O)O)C1CCC2C3C(O)CC4CC(O)CCC4(C)C3CC(O)C12C", "note": "(configuration not stated) [glycocholic acid (GCA)]", "LC retention time": 3.36}, {"molecule": "CC(CCC(=O)NCC(=O)O)C1CCC2C3CCC4CC(O)CCC4(C)C3CC(O)C12C", "note": "(configuration not stated) [glycodeoxycholic acid (GDCA)]", "LC retention time": 3.78}, {"molecule": "CCCCCCCCCCCCCC=CC(O)C([NH3+])COP(=O)([O-])O", "note": "(configuration not stated) [sphingosine 1-phosphate]", "LC retention time": 4.36}, {"molecule": "CC(CCC(=O)NCCS(=O)(=O)O)C1CCC2C3C(O)CC4CC(O)CCC4(C)C3CCC12C", "note": "(configuration not stated) [taurochenodeoxycholic acid (TCDCA)]", "LC retention time": 3.45}, {"molecule": "CC(CCC(=O)NCCS(=O)(=O)O)C1CCC2C3C(O)CC4CC(O)CCC4(C)C3CC(O)C12C", "note": "(configuration not stated) [taurocholic acid (TCA)]", "LC retention time": 3.08}]}]}
